We go through 17 compounds from US7767665B2, “1,3-benzothiazinone derivatives and use thereof” (Takeda Pharmaceutical Company Limited, priority 2001, dated 2010).

Consider `CN(CC(=O)O)c1nccc(-c2nc(=O)c3ccccc3s2)n1` [Example 294, {Methyl [6-(4-oxo-4H-1,3-benzothiazin-2-yl)-2-pyrimidinyl]amino}acetic acid], for which the melting point is 215 °C (dec.).

As to `Cc1cc(CCC(=O)O)cc(-c2nc(=O)c3ccc(Cl)cc3s2)n1` [Example 322, 3-[2-(7-Chloro-4-oxo-4H-1,3-benzothiazin-2-yl)-6-methyl-4-pyridyl]propionic acid], the melting point was 273.5 °C (dec.).

In turn, `CS(=O)(=O)c1cc(CCC(=O)O)cc(-c2nc(=O)c3ccccc3s2)n1` [Example 346, 3-[2-(Methylsulfonyl)-6-(4-oxo-4H-1,3-benzothiazin-2-yl)-4-pyridyl]propionic acid] had a melting point of 305.5 to 306 °C.

As for `COc1ccnc(-c2nc(=O)c3ccccc3s2)c1` [Example 25, 2-(4-Methoxy-2-pyridyl)-4H-1,3-benzothiazine-4-one], the melting point lay within 214.1 to 214.6 °C.

As to `O=c1nc(-c2cccc(CSCc3ccccc3)n2)sc2ccccc12` [Example 255, 2-[6-[(Benzylthio)methyl]-2-pyridyl]-4H-1,3-benzothiazine-4-one], the melting point lay within 126 to 128 °C.

Turning to `O=C(c1ccc2c(=O)nc(-c3ccccn3)sc2c1)N1CCCC1` [Example 238, 2-(2-Pyridyl)-7-(1-pyrrolidinylcarbonyl)-4H-1,3-benzothiazine-4-one], the melting point fell in the range of 173.6 to 174.2 °C.

Consider `O=c1nc(-c2cccc([S+]([O-])CCc3ccccc3)n2)sc2ccccc12` (centres unmarked) [Example 162, 2-[6-(2-Phenylethylsulfinyl)-2-pyridyl]-4H-1,3-benzothiazine-4-one], for which the melting point fell in the range of 164.5 to 165.5 °C.

Turning to `CN(CC(=O)OC(C)(C)C)c1cncc(-c2nc(=O)c3ccccc3s2)n1` [Example 291, tert-Butyl {methyl[6-(4-oxo-4H-1,3-benzothiazin-2-yl)-2-pyrazinyl]amino}acetate], the melting point was 189 to 190.5 °C.

Consider `CCNC(=O)NCCc1cccc(-c2nc(=O)c3ccccc3s2)n1` [Example 228, N-Ethyl-N′-[2-[6-(4-oxo-4H-1,3-benzothiazin-2-yl)-2-pyridyl]ethyl]urea], for which the melting point lay in the range of 240.3 to 242.4 °C.

On to `O=c1nc(-c2cccc(CN3CCN(c4ccc(F)cc4)CC3)n2)sc2ccccc12` [Example 265, 2-(6-{[4-(4-Fluorophenyl)-1-piperazinyl]methyl}-2-pyridyl)-4H-1,3-benzothiazine-4-one], for which the melting point was in the range of 156 to 157 °C.

`O=C(O)CCc1ccc(-c2nc(=O)c3ccccc3s2)nc1` [Example 328, 3-[6-(4-Oxo-4H-1,3-benzothiazin-2-yl)-3-pyridyl]propionic acid] came in with a melting point of 232.2 to 232.4 °C.

For `O=c1nc(-c2cccc(Oc3ccccc3)n2)sc2ccccc12` [Example 41, 2-(6-Phenoxy-2-pyridyl)-4H-1,3-benzothiazine-4-one], the melting point was in the range of 160.8 to 161.3 °C.

`CS(=O)(=O)c1ccc(-c2nc(=O)c3ccccc3s2)cn1` [Example 262, 2-[6-(Methylsulfonyl)-3-pyridyl]-4H-1,3-benzothiazine-4-one] yielded a melting point of 205 to 207 °C.

Compound `CSc1ccnc(-c2nc(=O)c3ccccc3s2)c1` [Example 298, 2-[4-(Methylthio)-2-pyridyl]-4H-1,3-benzothiazine-4-one] had a melting point of 213 to 214 °C.

Turning to `CC(C)(C)[S+]([O-])c1cccc(-c2nc(=O)c3ccccc3s2)n1` (centres unmarked) [Example 153, 2-[6-(tert-Butylsulfinyl)-2-pyridyl]-4H-1,3-benzothiazine-4-one], the melting point is 180.5 °C (dec.).

With `O=C(O)CCOCc1cccc(-c2nc(=O)c3ccccc3s2)n1` [Example 337, 3-[(6-(4-oxo-4H-1,3-benzothiazin-2-yl)-2-pyridyl)methoxy]propionic acid], the melting point is 176.6 to 176.7 °C.

On to `O=c1nc(-c2ccccn2)sc2ccc(OCCCO)cc12` [Example 118, 6-(3-Hydroxypropoxy)-2-(2-pyridyl)-4H-1,3-benzothiazine-4-one], for which the melting point lay in the range of 196.6 to 197.7 °C.
